Results from patent US20240238218A1, “[…] A […] ACTIVE COMPOUND AND METHOD OF PREPARATION THEREOF” (GW Research Limited, priority 2021, published 2024).

Key:
[1] = test system: mouse model of generalised seizure (tonic hind limb extensor convulsions); assay: Maximal electroshock seizure threshold (MEST) test in the mouse
Procedure: The efficacy of the novel resorcinol according to the compound of Formula I was tested in a mouse model of generalised seizure, the maximal electroshock seizure threshold (MEST) test.
In the MEST test the ability of a drug to alter the seizure threshold current required to induce hind limb tonic extensor convulsions is measured according to an “up and down” method of shock titration (Kimball et al., 1957). An increase in seizure threshold is indicative of anti-convulsant effect.
The ability of a test compound to alter the stimulus intensity, expressed as current (mA), required to induce the presence of tonic hind limb extensor convulsions, is assessed in the MEST.
All animals were weighed at the beginning of the study and randomly assigned to treatment groups based on a mean distribution of body weight across groups.
The first animal within a treatment group was given a shock at the expected or estimated CC50 current. For subsequent animals, the current was lowered or raised depending on the convulsions outcome from the preceding animal, in intervals of 5 mA.
Data generated from each treatment group were used to calculate the CC50±SEM values for the treatment group.
Vehicle: (5% ethanol, 5% Kolliphor® EL, 90% Saline) was prepared as follows: 2 mL of ethanol, 2 mL of Kolliphor® EL were warmed to 60° C., in 36 mL of saline (1:1:18).
The test compound, described herein as Compound I, is as shown as Formula I. Test compound was administered at 1, 5, 20, 50, 100 and 200 mg/kg (i.p.) in a 1:2:17 ethanol:solutol:0.9% saline formulation.
The data for each treatment group were recorded as the number of +'s and 0's at each current level employed and this information is then used to calculate the CC50 value (current required for 50% of the animals to show seizure behaviour)±standard error.
Test compound effects were also calculated as percentage change in CC50 from the vehicle control group.
Significant difference between drug-treated animals and controls were assessed according to Litchfield and Wilcoxon (1949).

DBA/2 mice = assay: DBA/2 mouse audiogenic seizure test; type: in vivo; conditions: for Clonic convulsion, Latency (s) Median / Tonic extension, Latency (s) Median / Wild running, Latency (s) Median: bell maximum 60 seconds; for Mice with a rectal temperature below 35.0° C / Tremor noted (number of mice): group of 10
Source text: The DBA/2 audiogenic seizure test, which detects anticonvulsant activity, follows that described by Dürmüller et al. (NeuroReport, vol. 4, no. 6, pages 683-686, 1993).
60 male DBA/2 mice (3-4 weeks old) were included in the experiment (weight range 8-11 g at the beginning of the experiment). Animals were acclimatized to the test facility for 1 day after delivery and randomly housed in groups of 5 in macrolon cages on wood litter with free access to food and water.
Mice were individually transferred (at 3-5 minutes intervals) from the preparation room into an adjacent experimental room and body temperature was measured using a rectal thermometer. Immediately after, they were placed in a Plexiglas jar (Diameter=40 cm; Height=35 cm) mounted with an electric bell. Upon activating the bell, the occurrences and latencies to wild running fits, clonic and tonic seizures were measured. Deaths were also recorded. The bell was activated until a tonic seizure occured or for a maximum of 60 seconds.
The experiment included 6 groups (10 mice were studied per group). Experimenters were blinded to the treatment groups.
The test substance was evaluated at 4 doses, administered i.p. (10 mL/kg) 30 or 60 minutes before the test, and compared with a vehicle control group. Doses and pre-treatment times were based on previous pharmacokinetic data.
Test compound: Compound I dissolved in 5% ethanol, 10% Kolliphor HS15, 85% physiological saline.
Vehicle control: 5% ethanol, 10% Kolliphor HS15, 85% physiological saline.
Reference: Valproate (180 mg/kg), dissolved in 5% ethanol, 10% Kolliphor HS15, 85% physiological saline.
Quantitative data (latencies) with the test substance were analyzed by comparing treated groups with vehicle control using Kruskal-Wallis test followed by Dunn's multiple comparisons test. Quantitative data with the reference substance were analyzed using Mann-Whitney U test.
Quantal data (frequencies) were analyzed by comparing treated groups with vehicle control using Fisher's Exact Probability tests.

[2] = 20 mg/kg i.p., 30 min post dose
[3] = 50 mg/kg i.p., 30 min post dose
[4] = 100 mg/kg i.p., 60 min post dose
[5] = 200 mg/kg i.p., 60 min post dose
[6] = 20 mg/kg i.p., 30 min before the test
[7] = 50 mg/kg i.p., 30 min before the test
[8] = 100 mg/kg i.p., 60 min before the test
[9] = 100 mg/kg i.p., 60 min before the test, mice with rectal temperature below 35.0° C removed
[10] = 200 mg/kg i.p., 60 min before the test
[11] = 200 mg/kg i.p., 60 min before the test, mice with rectal temperature below 35.0° C removed

C=C(C)[C@@H]1CC(O)C(C)=C[C@H]1c1c(O)cc(Br)cc1O (single isomer, unassigned) [Compound I]
% change from vehicle (CC50) ([1]; 1 mg/kg i.p., 15 min post dose): 32%
CC50 +/− SEM ([1]; 1 mg/kg i.p., 15 min post dose): 31.3 ± 1.5 mA
% change from vehicle (CC50) ([1]; 5 mg/kg i.p., 15 min post dose): 45%
CC50 +/− SEM ([1]; 5 mg/kg i.p., 15 min post dose): 34.2 ± 1.5 mA
% change from vehicle (CC50) [1, 2]: 202%
CC50 +/− SEM [1, 2]: 71.5 ± 1.0 mA
% change from vehicle (CC50) [1, 3]: 650%
CC50 +/− SEM [1, 3]: 177.5 ± 0.7 mA
% change from vehicle (CC50) [1, 4]: 1157%
CC50 +/− SEM [1, 4]: 297.5 ± 0.7 mA
% change from vehicle (CC50) [1, 5]: >1168%
CC50 +/− SEM [1, 5]: >300.0 mA
Clonic convulsion, Latency, Compared with Vehicle (i.p.) % (DBA/2 mice; [6]): +44%
Clonic convulsion, Presence, % (DBA/2 mice; [6]): 70%
Clonic convulsion, Presence, Compared with Vehicle (i.p.) % (DBA/2 mice; [6]): −30%
Clonic convulsion, Presence, Total (DBA/2 mice; [6]): 7/10
Death, Presence, % (DBA/2 mice; [6]): 20%
Death, Presence, Compared with Vehicle (i.p.) % (DBA/2 mice; [6]): −50%
Death, Presence, Total (DBA/2 mice; [6]): 2/10
Tonic extension, Latency, Compared with Vehicle (i.p.) % (DBA/2 mice; [6]): +461%
Tonic extension, Presence, % (DBA/2 mice; [6]): 40%
Tonic extension, Presence, Compared with Vehicle (i.p.) % (DBA/2 mice; [6]): −60%
Tonic extension, Presence, Total (DBA/2 mice; [6]): 4/10
Wild running, Latency, Compared with Vehicle (i.p.) % (DBA/2 mice; [6]): +55%
Wild running, Presence, % (DBA/2 mice; [6]): 80%
Wild running, Presence, Compared with Vehicle (i.p.) % (DBA/2 mice; [6]): −20%
Wild running, Presence, Total (DBA/2 mice; [6]): 8/10
Clonic convulsion, Latency (s) Median (DBA/2 mice; [6]): 9.5 s
Tonic extension, Latency (s) Median (DBA/2 mice; [6]): 60.0 s
Wild running, Latency (s) Median (DBA/2 mice; [6]): 5.1 s
Clonic convulsion, Latency, Compared with Vehicle (i.p.) % (DBA/2 mice; [7]): +809%
Clonic convulsion, Presence, % (DBA/2 mice; [7]): 40%
Clonic convulsion, Presence, Compared with Vehicle (i.p.) % (DBA/2 mice; [7]): −60%
Clonic convulsion, Presence, Total (DBA/2 mice; [7]): 4/10
Death, Presence, % (DBA/2 mice; [7]): 0%
Death, Presence, Compared with Vehicle (i.p.) % (DBA/2 mice; [7]): −100%
Death, Presence, Total (DBA/2 mice; [7]): 0/10
Tonic extension, Latency, Compared with Vehicle (i.p.) % (DBA/2 mice; [7]): +461%
Tonic extension, Presence, % (DBA/2 mice; [7]): 0%
Tonic extension, Presence, Compared with Vehicle (i.p.) % (DBA/2 mice; [7]): −100%
Tonic extension, Presence, Total (DBA/2 mice; [7]): 0/10
Wild running, Latency, Compared with Vehicle (i.p.) % (DBA/2 mice; [7]): +924%
Wild running, Presence, % (DBA/2 mice; [7]): 50%
Wild running, Presence, Compared with Vehicle (i.p.) % (DBA/2 mice; [7]): −50%
Wild running, Presence, Total (DBA/2 mice; [7]): 5/10
Clonic convulsion, Latency (s) Median (DBA/2 mice; [7]): 60.0 s
Tonic extension, Latency (s) Median (DBA/2 mice; [7]): 60.0 s
Wild running, Latency (s) Median (DBA/2 mice; [7]): 33.8 s
Clonic convulsion, Latency, Compared with Vehicle (i.p.) % (DBA/2 mice; [8]): +809%
Clonic convulsion, Presence, Compared with Vehicle (i.p.) % (DBA/2 mice; [8]): −100%
Death, Presence, Compared with Vehicle (i.p.) % (DBA/2 mice; [8]): −100%
Tonic extension, Latency, Compared with Vehicle (i.p.) % (DBA/2 mice; [8]): +461%
Tonic extension, Presence, Compared with Vehicle (i.p.) % (DBA/2 mice; [8]): −100%
Wild running, Latency, Compared with Vehicle (i.p.) % (DBA/2 mice; [8]): +1718%
Wild running, Presence, Compared with Vehicle (i.p.) % (DBA/2 mice; [8]): −100%
Clonic convulsion, Latency (s) Median (DBA/2 mice; [8]): 60.0 s
Tonic extension, Latency (s) Median (DBA/2 mice; [8]): 60.0 s
Wild running, Latency (s) Median (DBA/2 mice; [8]): 60.0 s
Clonic convulsion, Presence, % (DBA/2 mice; [9]): 0%
Clonic convulsion, Presence, Total (DBA/2 mice; [9]): 0/6
Death, Presence, % (DBA/2 mice; [9]): 0%
Death, Presence, Total (DBA/2 mice; [9]): 0/6
Tonic extension, Presence, % (DBA/2 mice; [9]): 0%
Tonic extension, Presence, Total (DBA/2 mice; [9]): 0/6
Wild running, Presence, % (DBA/2 mice; [9]): 0%
Wild running, Presence, Total (DBA/2 mice; [9]): 0/6
Mice with a rectal temperature below 35.0° C (DBA/2 mice; 100 mg/kg i.p.): Four mice
Tremor noted (number of mice) (DBA/2 mice; 100 mg/kg i.p.): 5 mice
Clonic convulsion, Latency, Compared with Vehicle (i.p.) % (DBA/2 mice; [10]): +809%
Clonic convulsion, Presence, Compared with Vehicle (i.p.) % (DBA/2 mice; [10]): −80%
Death, Presence, Compared with Vehicle (i.p.) % (DBA/2 mice; [10]): −100%
Tonic extension, Latency, Compared with Vehicle (i.p.) % (DBA/2 mice; [10]): +461%
Tonic extension, Presence, Compared with Vehicle (i.p.) % (DBA/2 mice; [10]): −100%
Wild running, Latency, Compared with Vehicle (i.p.) % (DBA/2 mice; [10]): +1718%
Wild running, Presence, Compared with Vehicle (i.p.) % (DBA/2 mice; [10]): −80%
Clonic convulsion, Latency (s) Median (DBA/2 mice; [10]): 60.0 s
Tonic extension, Latency (s) Median (DBA/2 mice; [10]): 60.0 s
Wild running, Latency (s) Median (DBA/2 mice; [10]): 60.0 s
Clonic convulsion, Presence, % (DBA/2 mice; [11]): 33%
Clonic convulsion, Presence, Total (DBA/2 mice; [11]): 2/6
Death, Presence, % (DBA/2 mice; [11]): 0%
Death, Presence, Total (DBA/2 mice; [11]): 0/6
Tonic extension, Presence, % (DBA/2 mice; [11]): 0%
Tonic extension, Presence, Total (DBA/2 mice; [11]): 0/6
Wild running, Presence, % (DBA/2 mice; [11]): 33%
Wild running, Presence, Total (DBA/2 mice; [11]): 2/6
Mice with a rectal temperature below 35.0° C (DBA/2 mice; 200 mg/kg i.p.): Four mice
Tremor noted (number of mice) (DBA/2 mice; 200 mg/kg i.p.): 3 mice
Effect on the number of deaths (DBA/2 mice; any doses (20, 50, 100, 200 mg/kg i.p.)): did not affect the number of deaths at any doses
